In patent US8815918B2, “Imidazo [2, 1-B] [1, 3, 4] thiadiazole derivatives” (Centro Nacional de Investigaciones Oncologicas (CNIO), priority 2009, dated 2014) one finds IC50 and inhibition data, which are given here for 28 compounds.

Molecules are shown by their SMILES. Where two headings read alike, the source gives them in different places.

This experiment addresses PI3K (p110α/p85α) (Homo sapiens (Human), UniProt P42336). Put plainly: PI3K Activity Assay (ADP Hunter Plus). The settings on record: for inhibition at 10 µM: 10 μM compound concentration, read-out: Inhibition (%) of PI3Kα activity, Inh (%) at 10 μM. Type of experiment: biochemical. On the procedure:
The kinase activity was measured by using the commercial ADP Hunter™ Plus assay available from DiscoveRx (#33-016), which is a homogeneous assay to measure the accumulation of ADP, a universal product of kinase activity. The enzyme, PI3K (p110α/p85α was purchased from Carna Biosciences (#07CBS-0402A). The assay was done following the manufacturer recommendations with slight modifications: Mainly the kinase buffer was replace by 50 mM HEPES, pH 7.5, 3 mM MgCl2, 100 mM NaCl, 1 mM EGTA, 0.04% CHAPS, 2 mM TCEP and 0.01 mg/ml BGG. The PI3K was assayed in a titration experiment to determine the optimal protein concentration for the inhibition assay. To calculate the IC50 of the ETP-compounds, serial 1:5 dilutions of the compounds were added to the enzyme at a fixed concentration (2.5 μg/mL. The enzyme was preincubated with the inhibitor and 30 μM PIP2 substrate (P9763, Sigma) for 5 min and then ATP was added to a final 50 μM concentration. Reaction was carried out for 1 hour at 25° C. Reagent A and B were sequentially added to the wells and plates were incubated for 30 min at 37° C. Fluorescence counts were read in a Victor instrument (Perkin Elmer) with the recommended settings (544 and 580 nm as excitation and emission wavelengths, respectively). Values were normalized against the control activity included for each enzyme (i.e., 100% PI3 kinase activity, without compound). These values were plot against the inhibitor concentration and were fit to a sigmoid dose-response curve by using the Graphad software.

Setting [1] is: read-out: Biological activity in PI3Kα, semi-quantitative.

PI3K (p110α/p85α), sequence (P42336 whole entry): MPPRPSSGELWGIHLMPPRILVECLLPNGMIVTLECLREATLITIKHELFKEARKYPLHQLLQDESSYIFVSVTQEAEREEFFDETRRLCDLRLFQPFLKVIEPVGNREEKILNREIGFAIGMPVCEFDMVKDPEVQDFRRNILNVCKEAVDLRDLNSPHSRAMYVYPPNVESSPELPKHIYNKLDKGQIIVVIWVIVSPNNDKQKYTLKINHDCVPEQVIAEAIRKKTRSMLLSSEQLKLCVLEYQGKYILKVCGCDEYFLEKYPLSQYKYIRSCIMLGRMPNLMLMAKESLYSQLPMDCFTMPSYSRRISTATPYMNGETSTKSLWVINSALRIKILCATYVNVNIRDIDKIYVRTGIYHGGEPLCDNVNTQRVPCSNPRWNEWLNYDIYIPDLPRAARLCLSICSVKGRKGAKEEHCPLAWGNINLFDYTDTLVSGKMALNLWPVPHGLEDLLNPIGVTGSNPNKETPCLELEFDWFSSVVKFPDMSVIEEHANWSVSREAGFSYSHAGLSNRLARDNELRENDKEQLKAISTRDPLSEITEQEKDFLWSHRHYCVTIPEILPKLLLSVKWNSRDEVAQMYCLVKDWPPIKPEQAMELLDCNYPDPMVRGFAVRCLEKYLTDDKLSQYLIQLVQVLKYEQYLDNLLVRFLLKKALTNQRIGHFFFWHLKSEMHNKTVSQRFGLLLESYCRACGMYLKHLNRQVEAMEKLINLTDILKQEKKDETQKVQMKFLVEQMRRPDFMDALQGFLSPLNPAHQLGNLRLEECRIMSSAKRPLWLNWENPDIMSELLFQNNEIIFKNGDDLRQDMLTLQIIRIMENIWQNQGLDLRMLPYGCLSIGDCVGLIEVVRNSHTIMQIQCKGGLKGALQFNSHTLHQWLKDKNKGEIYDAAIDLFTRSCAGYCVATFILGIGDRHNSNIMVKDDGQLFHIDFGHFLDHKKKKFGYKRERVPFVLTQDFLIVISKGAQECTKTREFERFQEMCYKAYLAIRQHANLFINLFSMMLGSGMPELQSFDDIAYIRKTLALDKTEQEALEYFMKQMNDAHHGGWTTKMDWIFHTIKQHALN
PI3K (p110α/p85α), sequence (P27986 whole entry partner): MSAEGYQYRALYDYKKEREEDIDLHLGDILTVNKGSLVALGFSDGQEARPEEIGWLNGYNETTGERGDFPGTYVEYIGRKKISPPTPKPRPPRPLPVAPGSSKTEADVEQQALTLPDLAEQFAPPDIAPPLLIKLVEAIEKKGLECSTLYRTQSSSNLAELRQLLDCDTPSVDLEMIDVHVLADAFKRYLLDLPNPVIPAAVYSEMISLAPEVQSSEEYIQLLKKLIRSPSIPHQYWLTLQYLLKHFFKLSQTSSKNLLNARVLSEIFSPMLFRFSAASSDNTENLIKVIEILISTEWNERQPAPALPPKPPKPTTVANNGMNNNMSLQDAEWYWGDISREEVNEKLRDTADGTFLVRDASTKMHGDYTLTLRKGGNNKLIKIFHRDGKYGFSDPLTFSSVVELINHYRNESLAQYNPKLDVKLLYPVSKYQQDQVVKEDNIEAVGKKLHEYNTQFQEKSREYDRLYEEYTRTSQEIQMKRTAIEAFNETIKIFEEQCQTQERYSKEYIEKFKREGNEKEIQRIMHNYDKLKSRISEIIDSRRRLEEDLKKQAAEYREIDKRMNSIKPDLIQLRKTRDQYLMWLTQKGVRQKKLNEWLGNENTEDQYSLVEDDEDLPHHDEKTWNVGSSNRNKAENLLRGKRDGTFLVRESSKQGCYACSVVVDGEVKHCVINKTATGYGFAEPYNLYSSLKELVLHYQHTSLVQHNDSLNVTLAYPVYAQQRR

In the case of `Nc1ncc(-c2cnc3sc(-c4ccc5c(c4)C4(CCNCC4)C(=O)N5)nn23)cc1C(F)(F)F` [Example 39, 5-[2-(2-oxo-1,2-dihydrospiro[indole-3,4′-piperidine]-5-yl)-imidazo[2,1-b][1,3,4]thiadiazol-5-yl]-3-trifluoromethyl-pyridin-2-ylamine], the IC50 under setting [1] is < 0.1 µM.

With `Nc1ncc(-c2cnc3sc(-c4ccc(S(=O)(=O)N5CCOCC5)cc4)nn23)cc1C(F)(F)F` [Example 44, 5-{2-[4-(Morpholine-4-sulfonyl)-phenyl]-imidazo[2,1-b][1,3,4]thiadiazol-5-yl}-3-trifluoromethyl-pyridin-2-ylamine], under setting [1], the IC50 was in the range of 0.1 to 1 µM.

Take `CCn1cc(-c2nn3c(-c4cnc(N)c(C(F)(F)F)c4)cnc3s2)cn1` [Example 36, 5-[2-(1-Ethyl-1H-pyrazol-4-yl)-imidazo[2,1-b][1,3,4]thiadiazol-5-yl]-3-trifluoromethyl-pyridin-2-ylamine]: the IC50 runs as follows: under setting [1], < 0.1 µM; (read-out: IC50 [μM] PI3Kα) 0.095 µM.

For the compound `CS(=O)(=O)Nc1cccc(-c2nn3c(-c4cnc(N)c(C(F)(F)F)c4)cnc3s2)c1` [Example 31, N-{3-[5-(6-Amino-5-trifluoromethyl-pyridin-3-yl)-imidazo[2,1-b][1,3,4]thiadiazol-2-yl]-phenyl}-methanesulfonamide], the IC50 under setting [1] was < 0.1 µM.

As for `CS(=O)(=O)c1ccc(-c2cnc3sc(-c4cnc(N)c(C(F)(F)F)c4)nn23)cc1` [Example 49, 5-[5-(4-Methanesulfonyl-phenyl)-imidazo[2,1-b][1,3,4]thiadiazol-2-yl]-3-trifluoromethyl-pyridin-2-ylamine], the IC50 under setting [1] is < 0.1 µM.

As for `COc1ccc(-c2nn3c(-c4ccc(O)nc4)c(C)nc3s2)cc1OC` [Example 8, 5-[2-(3,4-Dimethoxy-phenyl)-6-methyl-imidazo[2,1-b][1,3,4]thiadiazol-5-yl]-pyridin-2-ol], the IC50 under setting [1] fell in the range of 1 to 50 µM.

Regarding `CC(C)(C)OC(=O)N1CCC2(CC1)C(=O)Nc1ccc(-c3nn4c(-c5cnc(N)c(C(F)(F)F)c5)cnc4s3)cc12` [Example 38, 5-[2-(1′-(tert-butoxycarbonyl)-2-oxo-1,2-dihydrospiro[indole-3,4′-piperidine]-5-yl)-imidazo[2,1-b][1,3,4]thiadiazol-5-yl]-3-trifluoromethyl-pyridin-2-ylamine], under setting [1], the IC50 fell in the range of 1 to 50 µM.

For the compound `COc1ccc(-c2nn3c(-c4cnc(N5CCN(C)CC5)nc4)cnc3s2)cc1OC` [Example 21, 2-(3,4-Dimethoxy-phenyl)-5-[2-(4-methyl-piperazin-1-yl)-pyrimidin-5-yl]-imidazo[2,1-b][1,3,4]thiadiazole], the IC50 under setting [1] lay in the range of 0.1 to 1 µM.

As a reminder, the inhibition is the drop in the measured response relative to a control, in per cent. As for `COc1ccc(-c2nn3c(-c4cnc(N)nc4)c(C)nc3s2)cc1OC` [Example 7, 5-[2-(3,4-Dimethoxy-phenyl)-6-methyl-imidazo[2,1-b][1,3,4]thiadiazol-5-yl]-pyrimidin-2-ylamine], the inhibition at 10 µM was found to be 100%. Besides, under setting [1], the IC50 lay within 0.1 to 1 µM.

Take `N#Cc1ccc(-c2nn3c(-c4cnc(N)c(C(F)(F)F)c4)cnc3s2)cc1` [Example 33, 4-[5-(6-Amino-5-trifluoromethyl-pyridin-3-yl)-imidazo[2,1-b][1,3,4]thiadiazol-2-yl]-benzonitrile]: the IC50 under setting [1] lay in the range of 0.1 to 1 µM.

As for `CS(=O)(=O)NCc1cccc(-c2nn3c(-c4cnc(N)c(C(F)(F)F)c4)cnc3s2)c1` [Example 34, N-{3-[5-(6-Amino-5-trifluoromethyl-pyridin-3-yl)-imidazo[2,1-b][1,3,4]thiadiazol-2-yl]-benzyl}-methanesulfonamide], the IC50 under setting [1] is < 0.1 µM.

For the compound `COc1ccc(-c2nn3c(-c4ccc(C#N)nc4)c(C)nc3s2)cc1OC` [Example 2, 5-[2-(3,4-Dimethoxy-phenyl)-6-methyl-imidazo[2,1-b][1,3,4]thiadiazol-5-yl]-pyridine-2-carbonitrile], the inhibition at 10 µM was 100%. Moreover, under setting [1], the IC50 lay within 0.1 to 1 µM.

Turning to `COc1ccc(-c2nn3c(-c4cccnc4)c(C)nc3s2)cc1OC` [Example 4, 2-(3,4-Dimethoxy-phenyl)-6-methyl-5-pyridin-3-yl-imidazo[2,1-b][1,3,4]thiadiazole], the inhibition at 10 µM turned out to be 81%. The IC50 under setting [1] fell in the range of 1 to 50 µM.

Regarding `COc1ccc(-c2nn3c(-c4cnc(NCCN(C)C)nc4)cnc3s2)cc1OC` [Example 26, N′-{5-[2-(3,4-Dimethoxy-phenyl)-imidazo[2,1-b][1,3,4]thiadiazol-5-yl]-pyrimidin-2-yl}-N,N-dimethyl-ethane-1,2-diamine], the IC50 under setting [1] was in the range of 0.1 to 1 µM.

Consider `Nc1ncc(-c2nn3c(-c4ccc(F)nc4)cnc3s2)cc1C(F)(F)F` [Example 50, 5-[5-(6-Fluoro-pyridin-3-yl)-imidazo[2,1-b][1,3,4]thiadiazol-2-yl]-3-trifluoromethyl-pyridin-2-ylamine], for which the inhibition at 10 µM was determined as 97%. Moreover, the IC50 under setting [1] is 0.1 to 1 µM.

In the case of `COc1cc(-c2nn3c(-c4cnc(N)c(C(F)(F)F)c4)cnc3s2)ccc1OC1CCNCC1` [Example 12, 5-{2-[3-Methoxy-4-(piperidin-4-yloxy)-phenyl]-imidazo[2,1-b][1,3,4]thiadiazol-5-yl}-3-trifluoromethyl-pyridin-2-ylamine], under setting [1], the IC50 is < 0.1 µM.

Regarding `COc1ccc(-c2nn3c(-c4cnc(N)c(C(F)(F)F)c4)c(C)nc3s2)cc1OC` [Example 3, 5-[2-(3,4-Dimethoxy-phenyl)-6-methyl-imidazo[2,1-b][1,3,4]thiadiazol-5-yl]-3-trifluoromethyl-pyridin-2-ylamine], the inhibition at 10 µM amounted to 97%. Also, the IC50 under setting [1] is < 0.1 µM.

For the compound `COc1ccc(-c2cnc3sc(-c4ccc(OC5CCNCC5)c(OC)c4)nn23)cn1` [Example 13, 2-[3-Methoxy-4-(piperidin-4-yloxy)-phenyl]-5-(6-methoxy-pyridin-3-yl)-imidazo[2,1-b][1,3,4]thiadiazole], under setting [1], the IC50 lay within 1 to 50 µM.

`COc1cncc(-c2cnc3sc(-c4ccc(OC)c(OC)c4)nn23)c1` [Example 27, 2-(3,4-dimethoxyphenyl)-5-(5-methoxypyridin-3-yl)imidazo[2,1-b][1,3,4]thiadiazole]: the inhibition at 10 µM stood at 99%. The IC50 under setting [1] is < 0.1 µM.

As for `COc1cc(-c2nn3c(-c4cnc(N)c(C(F)(F)F)c4)c(C)nc3s2)ccc1OCCN1CCOCC1` [Example 11, 5-(2-(4-(2-morpholinoethoxy)-3-methoxyphenyl)-6-methylimidazo[2,1-b][1,3,4]thiadiazol-5-yl)-3-(trifluoromethyl)pyridin-2-amine], the inhibition at 10 µM came out at 83%. Further, the IC50 under setting [1] is 1 to 50 µM.

As for `COc1ccc(-c2c(C)nc3sc(-c4ccc(OC)c(OC)c4)nn23)cn1` [Example 5, 2-(3,4-Dimethoxy-phenyl)-5-(6-methoxy-pyridin-3-yl)-6-methyl-imidazo[2,1-b][1,3,4]thiadiazole], the inhibition at 10 µM was 70%. Also, the IC50 under setting [1] was 1 to 50 µM. In addition, under “read-out: IC50 [μM] PI3Kα”, the IC50 was determined as 2.88 µM.

For `COc1cc(-c2nn3c(-c4cnc(N)c(C(F)(F)F)c4)c(C)nc3s2)ccc1OCC(=O)N(C)C` [Example 10, 2-(4-(5-(6-amino-5-(trifluoromethyl)pyridin-3-yl)-6-methylimidazo[2,1-b][1,3,4]thiadiazol-2-yl)-2-methoxyphenoxy)-N,N-dimethylacetamide], the IC50 under setting [1] was in the range of 1 to 50 µM.

In the case of `CN(C)c1cccc(-c2nn3c(-c4cnc(N)c(C(F)(F)F)c4)cnc3s2)c1` [Example 42, 5-[2-(3-Dimethylamino-phenyl)-imidazo[2,1-b][1,3,4]thiadiazol-5-yl]-3-trifluoromethyl-pyridin-2-ylamine], the IC50 under setting [1] lay in the range of 0.1 to 1 µM.

As for `N#Cc1cccc(-c2nn3c(-c4cnc(N)c(C(F)(F)F)c4)cnc3s2)c1` [Example 29, 3-[5-(6-Amino-5-trifluoromethyl-pyridin-3-yl)-imidazo[2,1-b][1,3,4]thiadiazol-2-yl]-benzonitrile], the IC50 under setting [1] is < 0.1 µM.

`NC(=O)c1cccc(-c2nn3c(-c4cnc(N)c(C(F)(F)F)c4)cnc3s2)c1` [Example 35, 3-[5-(6-Amino-5-trifluoromethyl-pyridin-3-yl)-imidazo[2,1-b][1,3,4]thiadiazol-2-yl]-benzamide]: the IC50 under setting [1] is < 0.1 µM.

For `Nc1ncc(-c2cnc3sc(-c4cccnc4)nn23)cc1C(F)(F)F` [Example 32, 5-(2-Pyridin-3-yl-imidazo[2,1-b][1,3,4]thiadiazol-5-yl)-3-trifluoromethyl-pyridin-2-ylamine], the IC50 under setting [1] was < 0.1 µM.

Take `COc1cc(-c2nn3c(-c4cnc(N)c(C(F)(F)F)c4)c(C)nc3s2)ccc1OCCNC(=O)OC(C)(C)C` [Example 9, tert-Butyl 2-(4-(5-(6-amino-5-(trifluoromethyl)pyridin-3-yl)-6-methylimidazo-[2,1-b][1,3,4]thiadiazol-2-yl)-2-methoxyphenoxy)ethylcarbamate]: the inhibition at 10 µM came out at 77%. In addition, under setting [1], the IC50 lay in the range of 1 to 50 µM.

`Nc1ncc(-c2cnc3sc(-c4cccc(S(=O)(=O)N5CCOCC5)c4)nn23)cc1C(F)(F)F` [Example 45, 5-{2-[3-(Morpholine-4-sulfonyl)-phenyl]-imidazo[2,1-b][1,3,4]thiadiazol-5-yl}-3-trifluoromethyl-pyridin-2-ylamine]: the IC50 was 0.1 to 1 µM under setting [1] and 0.437 µM (read-out: IC50 [μM] PI3Kα).
